“And” between values parts separate entries of the source, which are not always exact repeats. Identical values can stand only once.
Key:
Human S1P1 receptor [1] = biological target: T1, Human S1P1 receptor (Homo sapiens, UniProt P21453); assay: Agonist activity at an S1P1 receptor ([35S]-GTPγS exchange reaction, membrane fractions); assay type: biochemical; conditions: read-out: EC50, agonist activity at S1P1 receptor (GTP exchange reaction)
Protocol: (§1) By using membrane fractions prepared from a human S1P1 receptor expressing cells (Multispan Ltd.), the agonist activity of each test compound was measured by [^35S]-GTPγS exchange reaction in accordance with a standard procedure (Methods in Molecular Biology, Vol. 552, p 143-151 (2009)), and EC50 (nM) of each test compound was computed.

Human S1P3 receptor = Human S1P3 receptor (Homo sapiens, UniProt Q99500); assay: Agonist activity at an S1P3 receptor ([35S]-GTPγS exchange reaction at 1000 nM); assay type: biochemical; conditions: read-out: percent of the maximal agonist activity at S1P3 receptor
Protocol: as §1
By using membrane fractions prepared from Human S1P3 receptor expressing cells (Multispan Inc.), the agonist activity of the compound in the present invention was measured by a [^35S]-GTPγS exchange reaction at 1000 nM by the similar method of the Experimental Example 2.

Human S1P4 receptor = biological target: T2, Human S1P4 receptor (Homo sapiens, UniProt O95977); assay: Agonist activity at a S1P4 receptor (reporter assay, EDG6-bla/U2OS cells); assay type: cell-based
T2 sequence (O95977 1-384): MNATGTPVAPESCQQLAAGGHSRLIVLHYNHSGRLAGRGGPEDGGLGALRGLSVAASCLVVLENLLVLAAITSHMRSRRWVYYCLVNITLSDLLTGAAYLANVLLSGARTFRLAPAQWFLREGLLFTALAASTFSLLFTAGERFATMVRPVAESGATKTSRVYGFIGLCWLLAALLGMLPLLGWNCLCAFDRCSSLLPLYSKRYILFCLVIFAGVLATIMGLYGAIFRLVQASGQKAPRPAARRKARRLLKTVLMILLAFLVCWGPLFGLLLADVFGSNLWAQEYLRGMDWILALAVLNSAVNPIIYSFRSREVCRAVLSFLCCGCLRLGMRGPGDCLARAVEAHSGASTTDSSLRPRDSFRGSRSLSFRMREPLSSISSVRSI
Protocol: Human S1P4 receptor gene recombinant EDG6-bla/U2OS cells (Life Technologies Japan Ltd.) were seeded into each well of a 384-well clear bottom black plate treated with poly-D-lysine at a density of 10000 cells/32 μL/well and cultured at 37° C. in a 5% CO2 incubator for 16 to 24 hours. A culture medium containing each test compound prepared as a 5× concentrate was added at 8 μL/well, and the plate was cultured at 37° C. in a 5% CO2 incubator for 5 hours. The substrate (LiveBLAzer™-FRET B/G substrate (CCF4-AM), Life Technologies Japan Ltd.) prepared as a 6× concentrate was added at 8 μL to each well, and the plate was incubated for 2 hours in the dark. The fluorescence intensity of the test samples was measured using bottom-reading fluorescence microplate reader at one excitation wavelength and 2 wavelengths for fluorescence emission (Ex409 nm, Em460 nm, Em530 nm). The intensity ratio of fluorescence at 460 nm/530 nm was calculated for each well. The maximum response ratio confirmed from the dose response of S1P was expressed as 100%. The concentration of the test compound required to stimulate 50% of its maximal activation was computed as EC50 (nM).

Human S1P5 receptor = biological target: T3, Human S1P5 receptor (Homo sapiens, UniProt Q9H228); assay: Agonist activity at an S1P5 receptor (reporter assay, EDG8-bla/U2OS cells); assay type: cell-based
T3 construct: host or cells: U2OS (EDG8-bla/U2OS)
Protocol: Human S1P5 receptor gene recombinant EDG8-bla/U2OS cells (Life Technologies Japan Ltd.) were plated in a 384-well clear bottom black plate at 10000 cells/32 μL/well, and the plate was incubated at 37° C. in a 5% CO2 incubator for 48 hours. A culture containing each test compound prepared as a 5× concentrate was added at 8 μL/well, and the plate was incubated at 37° C. in a 5% CO2 incubator for 5 hours. The substrate (LiveBLAzer™-FRET B/G substrate (CCF4-AM), Life Technologies Japan Ltd.) prepared as a 6× concentrate was added at 8 μL to each well, and the plate was incubated at room temperature for 2 hours in the dark. The fluorescence intensity of each well was measured using a bottom-reading fluorescence microplate reader at one excitation wavelength and 2 wavelengths for fluorescence emission (Ex409 nm, Em460 nm, Em530 nm). The intensity ratio of fluorescence at 460 nm/530 nm was calculated for each well. The maximum response ratio confirmed from the dose response of S1P was expressed as 100%. The concentration of test compound required to stimulate 50% of its maximal activation was determined as EC50 (nM).

heart rate = assay: Evaluation of the heart rate in a rat (under consciousness); assay type: in vivo; conditions: conscious rat, vascularly administered at 6 mg/kg body weight
Protocol: Under anesthesia, femoral artery was cannulated in a 7-11-week old male SD rat (Charles River Laboratories Japan Inc.) that had been reared for more than one week. Arterial cannula was connected to a pressure transducer, and under consciousness changes in the heart rate were monitored with a polygraph (Nihon Kohden) up to 4 hours after the vascular administration of the vehicle (10% PEG300-0.01M KOH saline) or the test compounds. The dose that lowered the heart rate by 20% was computed as TD20 (mg/kg body weight).

Human S1P1 receptor [2] = biological target: T1, Human S1P1 receptor; assay: Agonist activity at an S1P1 receptor (reporter assay, EDG1-bla/U2OS cells); assay type: cell-based; parameters: host or cells: U2OS (EDG1-bla/U2OS); conditions: S1P maximum response = 100%
Protocol: Human S1P1 receptor gene recombinant EDG1-bla/U2OS cells (Life Technologies Japan Ltd.) were plated in a 96-well half-sized clear bottom black plate at a density of 10000 cells/32 μL/well, and then the plate was incubated at 37° C. in a 5% CO2 incubator for 48 hours. A culture medium containing each test compound prepared as a 5× concentrate was added at 8 μL/well, and the plate was incubated at 37° C. in a 5% CO2 incubator for 5 hours. The substrate (LiveBLAzer™-FRET B/G substrate (CCF4-AM), Life Technologies Japan Ltd.) prepared as a 6× concentrate was added at 8 μL into each well, and the plate was incubated at room temperature for 2 hours in the dark. The fluorescence intensity of each well was detected using a bottom-reading fluorescence microplate reader (EnVision: ParkinElmer) at one excitation wavelength and 2 wavelengths for fluorescence emission (Ex409 nm, Em460 nm, Em530 nm). The intensity ratio of fluorescence at 460 nm/530 nm was calculated for each well. The maximum response ratio confirmed from the dose response of SIP was expressed as 100%. The concentration of a test compound required to stimulate 50% of its maximal activation was computed as EC50 (nM).

T1 sequence (P21453 whole entry): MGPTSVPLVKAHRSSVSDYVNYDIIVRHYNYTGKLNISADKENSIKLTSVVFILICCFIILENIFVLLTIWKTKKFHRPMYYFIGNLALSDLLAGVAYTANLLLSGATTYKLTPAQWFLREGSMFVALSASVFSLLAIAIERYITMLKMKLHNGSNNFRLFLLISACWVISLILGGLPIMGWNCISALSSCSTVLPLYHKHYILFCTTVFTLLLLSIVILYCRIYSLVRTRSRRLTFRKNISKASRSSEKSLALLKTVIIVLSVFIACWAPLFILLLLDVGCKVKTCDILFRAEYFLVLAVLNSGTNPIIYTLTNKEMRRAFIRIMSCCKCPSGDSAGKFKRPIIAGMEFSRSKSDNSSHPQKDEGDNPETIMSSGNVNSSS
Human S1P3 receptor, sequence (Q99500 whole entry): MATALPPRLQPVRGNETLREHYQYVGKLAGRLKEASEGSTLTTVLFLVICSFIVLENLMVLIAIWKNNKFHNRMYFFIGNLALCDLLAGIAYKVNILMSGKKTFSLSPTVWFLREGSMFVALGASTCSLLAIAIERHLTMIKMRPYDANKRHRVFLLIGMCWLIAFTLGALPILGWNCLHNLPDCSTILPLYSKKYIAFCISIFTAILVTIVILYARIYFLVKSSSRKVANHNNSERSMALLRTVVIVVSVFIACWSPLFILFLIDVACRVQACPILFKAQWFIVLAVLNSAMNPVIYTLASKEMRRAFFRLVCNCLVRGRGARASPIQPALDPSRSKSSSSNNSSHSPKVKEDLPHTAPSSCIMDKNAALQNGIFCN
T3 sequence (Q9H228 whole entry): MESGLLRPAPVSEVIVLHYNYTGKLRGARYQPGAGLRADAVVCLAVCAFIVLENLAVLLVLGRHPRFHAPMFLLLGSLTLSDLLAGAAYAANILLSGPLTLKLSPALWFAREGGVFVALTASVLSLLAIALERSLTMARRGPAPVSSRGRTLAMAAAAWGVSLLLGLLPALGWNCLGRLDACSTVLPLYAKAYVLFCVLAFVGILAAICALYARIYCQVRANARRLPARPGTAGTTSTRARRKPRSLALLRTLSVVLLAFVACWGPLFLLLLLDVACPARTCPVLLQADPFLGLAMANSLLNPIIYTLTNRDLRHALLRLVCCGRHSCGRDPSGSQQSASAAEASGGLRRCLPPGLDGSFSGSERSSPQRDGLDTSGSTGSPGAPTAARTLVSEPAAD

SMILES	EC50 (Human S1P1 receptor [1]) [µM]	Emax at 1 µM (Human S1P3 receptor) [%]	EC50 (Human S1P4 receptor) [µM]	EC50 (Human S1P5 receptor) [µM]	suppression of the heart rate (heart rate)	EC50 (Human S1P1 receptor [2])
CC(C)Oc1ccc(-c2cnc(-c3ccc(CN4CC(C(=O)O)C4)cc3)s2)cc1 [Example 2, 1-(4-(5-(4-isopropoxyphenyl)thiazol-2-yl)benzyl)azetidine-3-carboxylic acid]	≤ 0.05	< 20	≥ 2	≥ 2	not recognized	≤ 0.01 µM and 0.00379 µM
CC(C)Oc1ccc(-c2cnc(-c3ccc(CN4CC(C(=O)O)C4)cc3)s2)cc1Cl [Example 3, 1-(4-(5-(3-chloro-4-isopropoxyphenyl)thiazol-2-yl)benzyl)azetidine-3-carboxylic acid]	≤ 0.01	20 to 50	≥ 2	≥ 2	not recognized	≤ 0.001 µM and 0.00041 µM
